In patent US12691069B2, “Synthetic glycolipids and glycoliposome compositions : suitable for cargo delivery to the central nervous system” (KORANEX CAPITAL, priority 2022, dated 2026):
Marks after values point to notes of the source that are not given here.

Assays:
HeLa cells = test: Nile Red cellular uptake, HeLa; format: cell-based, human
Experimental: Murine dendritic cells JAWSII (ATCC® CRL-11904™) were grown in RPMI-1640 medium (HyClone, Logan UT) supplemented with 8% FBS (Gibco, Grand Island NY), 100 units/ml penicillin/streptomycin (HyClone, Logan UT) and 5 ng/mL of GM-CSF (Invitrogen, Frederick MD) at 37° C. and 5% CO2. Once confluent, cells were collected using 0.25% Trypsin-EDTA (Gibco, Grand Island NY). Murine macrophage cells J774A.1 (ATCC® TIB-67™) and human malignant cells HeLa (ATCC® CCL-2™; Cederlane, Burlington, ON, Canada) were grown […] (DMEM) high glucose (HyClone, Logan, UT) supplemented with 10% FBS and 100 units/ml penicillin/streptomycin at 37° C. and 5% CO2. Once confluent, cells were collected using a cell scraper. Viability was assessed prior to experiments by Trypan Blue (Gibco, Grand Island NY) exclusion where the viability was >90%. Cells were seeded at 3×10^5 cells in 300 μL in a 96 multi-well plate and left untreated or were treated with 10 μg/mL of empty liposomes MG12d or MGC12, 1 μg/mL of Nile Red (Sigma, St-Louis MO), or 1 μg/mL of Nile Red encapsulated in 10 μg/mL of MG12d or MGC12. […] Mean fluorescence intensity was analysed using the Cytomics FC-500 flow cytometer (Beckman Coulter, Fullerton CA) using the FL3 channel where […] were measured. Data was analyzed using the CXP Analysis Software. […]

[1] = In vivo Dynantin distribution after intranasal treatment; settings: intranasal Dynantin 2 μg, 20 minutes
[2] = Dynamic light scattering (DLS) of MGs; format: physicochemical; settings: At 3.2 mg/mL THF; for Diameter (nm): injected in nanopure water
Experimental: The self-assembly of the glycoliposomes into vesicles and liposomes involved the injection method of their solution in a water miscible solvent such as ethanol or tetrahydrofuran (THF) into water or buffer. […] The resulting assemblies were first analyzed by dynamic light scattering (DLS) for size, polydispersity (PDI), and stability in time. For liposome size determination, solutions of the glycolipids (3.5 mg) in THF (1.1 mL) were then diluted in distilled water (2.2 mL) to provide final concentrations of 1.06 mg/mL. Particle size distributions were measured in water using a Zetasizer® Nano S90 from Malvern Instruments (UK) equipped with 4 mW He—Ne laser 633 nm and avalanche photodiode positioned at 90° to the beam and temperature-controlled cuvette holder. Instrument parameters were determined automatically along with measurement times. Experiments were performed in triplicate at 25° C.
Different solutions of 12a (C8), 12c (C12), 12d (C14), 12e (C16), 22c (C12), 22d (C14), 22e (C16) in THF and EtOH were prepared from 0.5 mg/mL to 10 mg/mL. 100 μL of these preparations were injected in a constant 2 mL of nanopure water followed by 5 seconds of vortexing, and analyzed by DLS, to determine the diameter size of the MGs, as shown in Table 2.

Compound | Polydispersity Index (PDI) [2] | Diameter (nm) [2] | also measured
CCN(CC)c1ccc2nc3c4ccccc4c(=O)cc-3oc2c1 [Nile Red] |  |  | Nile Red uptake / staining (HeLa cells): no staining
CC[C@H](C)[C@H](NC(=O)[C@H](CCCN=C(N)N)NC(=O)[C@H](CCCN=C(N)N)NC(=O)[C@H](CC(C)C)NC(=O)[C@H](Cc1ccccc1)NC(=O)CNC(=O)CNC(=O)[C@@H](C)Cc1c(C)cc(O)cc1C)C(=O)N[C@@H](CCCN=C(N)N)C(=O)N1CCC[C@H]1C(=O)N[C@@H](CCCCN)C(N)=O [Dynantin] |  |  | Brain (%), percentage of total dose recovered ([1]; brain): 8.15 ± 3.06%; Dynantin levels in the brain ([1]; brain): detectable levels; Lung (%), percentage of total dose recovered ([1]; lung): 4.93 ± 0.89%; Sera (%), percentage of total dose recovered ([1]; sera): 21.66 ± 3.99%
CCCCCCCCOc1ccc(C(=O)NCCCCCCO[C@H]2O[C@H](CO)[C@@H](O)[C@H](O)[C@@H]2O)cc1OCCCCCCCC [12a, 6-Bis(octacyloxy)benzamido-N-hexyl α-D-mannopyranoside] | 0.178 | 300^a nm | 
6-bis(tetradecyloxy)benzamido-N-hexyl α-D-mannopyranoside [12d] | 0.040 | 286 ^a nm | 
CCCCCCCCCCCCOc1ccc(C(=O)NCCCCCCO[C@H]2O[C@H](CO)[C@@H](O)[C@H](O)[C@@H]2O)cc1OCCCCCCCCCCCC [12c, 6-Bis(dodecyloxy)benzamido-N-hexyl α-D-mannopyranoside] | 0.202 | 267 ^a nm | 
